From patent publication US20170239283A1, “USE OF STING AGONISTS TO TREAT VIRALLY-INDUCED AND PRE-MALIGNANT GROWTHS” (Providence Health & Services - Oregon, priority 2016, published 2017)

Assays:
[1] = tested on: Murine bone marrow-derived macrophages; experiment: M1/M2 differentiation of macrophages, Western blotting for iNOS and arginase I; type: cell-based; conditions: 24 hours treatment, then IFNγ (20 ng/ml) or IL-4 (20 ng/ml)
Description: FIG. 5 is a digital image of a Western blot for iNOS, Arginase I, and GAPDH in murine bone marrow-derived macrophages treated with compounds targeting TLR4 (LPS), STING (CDA), NOD2 (PGNECndss), TLR7 (Imiquimod), TLR9 (class A CpG), or RIGI (ppp5′dsRNA), then treated with IFNγ (20 ng/ml) or IL-4 (20 ng/ml).
Murine bone marrow-derived macrophages were treated for 24 hours with a range of immunological adjuvants targeting STING (CDA), NOD2 (PGNECndss), TLR7 (imiquimod), TLR9 (class A CpG), or RIGI (ppp5′dsRNA), then treated with IFNγ (20ng/ml) or IL-4 (20ng/ml) to direct M1 or M2 differentiation, respectively. Ligation of TLR4 (LPS) was a positive control. M1 differentiation was distinguished by expression of iNOS, and M2 differentiation by expression of arginase I as measured by Western blotting.

papilloma [2] = experiment: CD3+ T cell infiltration and histology of treated papilloma; type: in vivo, mice; conditions: for infiltrating CD3+ T cells in papilloma: 24 hours after injection of 25 μg
Description: FIGS. 4A-C are a series of digital images showing infiltration of T cells following treatment with STING ligand. […] Sections were stained for CD3 and DAPI nuclear counterstain. […] Both papilloma sites were harvested 24 hours later and stained for CD3 and DAPI nuclear counterstain on the i) treated and ii) untreated opposite side papilloma.
To investigate the effect of treatment on T cell infiltration, which we and others have shown play a role in clearance of advanced cancers following administration of STING ligands (Baird et al., Cancer Res. 76:50-61, 2016; Corrales et al., Cell Rep. 11:1018-1030, 2015), papilloma were stained for infiltrating CD3^+ T cells.

papilloma [3] = type: in vivo, mice; conditions: for papilloma size: larger 3-15 mm papilloma, 25 μg injected on d0, d1, d7 and d8
From the text: Pdx-Cre^+/− (Stock190 014647, Jackson Laboratories, Bar Harbor, Me.), Kras^(G12D)+/− (Stock#008179, Jackson Laboratories), and Trp53^(R172H)+/− (Stock#01XM2, NCI Fredrick Mouse Repository) mice were crossed to generate Pdx-Cre^+/− Kras ^(G12D)+/− Trp53^(R172H)+/− that generate pancreatic tumors (Hingorani et al., Cancer Cell 7:469-483, 2005). At variable penetrance, mice develop papilloma of the face and anogenital region (Hingorani et al., Cancer Cell 7:469-483, 2005; Gades et al., Comp. Med. 58:271-275, 2008). Mice bearing papilloma with no evidence of pancreatic tumors and less than 90 days of age were accrued to this study. Masses were treated by injection of 25 μg of c-di-CDG (Invivogen, San Diego, Calif., Catalog No. tlrl-naldg), Imiquimod (Invivogen) or PBS vehicle.
STING ligands were administered into the papilloma by direct injection with a total dose of 25 μg administered in a 25 μl injection volume. In the control case, 25 μg of Imiquimod was administered using the same technique. For larger papillomas, the injection was split between different sites within the same growth. The total dose to the growth remained 25 μg in each case. The animals were retreated on day 7 with a second cycle of injections.
Rapid alterations in small papilloma to resemble normal skin were observed within 18 hours of treatment (FIGS. 2A and B). In pilot studies, mice bearing papilloma were randomly assigned to treatment with the STING ligand c-di-GMP (CDG) or PBS vehicle control. In an example of a mouse with two small papilloma on the face, one was treated by direct injection of CDG, and the other given vehicle control (FIG. 2A, left). The CDG-injected papilloma rapidly reverted to normal skin within 18 hours (FIG. 2A, right). […] Injection of STING ligand into histologically normal skin at distant sites or in normal mice had no observable effect (not shown).
In addition, very large papilloma was treated with two cycles of treatment separated by 1 week, resulting in dramatic tumor regression (FIG. 3A). […] We tested treatment of larger, 3-15 mm papilloma with STING ligands. […] Therefore, we developed a treatment course consisting of injections on d0 and d1, and again on d7 and d8 as the papilloma decreased in size (FIG. 3B). Mice were randomized to receive CDG, to conventional treatment with the TLR7 ligand imiquimod, or PBS vehicle.

cervical dysplasia = conditions: added to excisional therapies, randomized clinical trials; cited from earlier work

## Nc1ncnc2c1ncn2[C@@H]1O[C@@H]2COP(=O)(O)O[C@H]3[C@@H](O)[C@H](n4cnc5c(N)ncnc54)O[C@@H]3COP(=O)(O)O[C@H]2[C@H]1O [CDA, cyclic diadenylate monophosphate]
[1]
  M1 (iNOS) / M2 (arginase I) differentiation of macrophages: prevented M2 differentiation by IL-4 without driving M1 differentiation

## Nc1nc2c(ncn2[C@@H]2O[C@@H]3COP(=O)(O)O[C@H]4[C@@H](O)[C@H](n5cnc6c(=O)[nH]c(N)nc65)O[C@@H]4COP(=O)(O)O[C@H]3[C@H]2O)c(=O)[nH]1 [CDG, cyclic diguanylate monophosphate]
Papilloma [2]
  infiltrating CD3+ T cells in papilloma: CD3^+ T cells were found associated with the normalized skin epithelium
Papilloma [2]; 14 days following treatment
  T cells in normalized skin: enriched in the normalized skin
Papilloma [2]; mice with more than one papilloma, one treated, 24 hours
  T cell infiltration in treated versus untreated papilloma of the same mouse: T cell infiltration and control only in the treated papilloma
Papilloma [3]; 25 μg direct injection
  toxicity: non-toxic at these doses
Papilloma [3]; 3-15 mm papilloma, single injection
  effect of a single injection on larger papilloma: rapid loss of papilloma around the injection site, but these did not fully regress
Papilloma [3]; 18 hours after injection into small papilloma
  appearance of injection site: slight reddening
Papilloma [3]
  papilloma size: significantly decreased papilloma size
Papilloma [3]; larger papilloma, injections on d0, d1, d7 and d8
  complete regression of papilloma: complete regression of some papilloma
Papilloma [3]; mouse with two small papilloma on the face, direct injection of 25 μg
  time for injected small papilloma to revert to normal skin: ≤ 18 h
Papilloma [3]; small papilloma, direct injection of 25 μg
  regression of experimental papilloma: rapid, site-specific regression of experimental papilloma

## CC(C)Cn1cnc2c(N)nc3ccccc3c21 [imiquimod]
Cervical dysplasia
  rate of recurrence of cervical dysplasia: neither approach impacts the rate of recurrence
Papilloma [2]
  infiltrating CD3+ T cells in papilloma: Few to no T cells were detected
Papilloma [3]
  papilloma size: did not significantly affect the size of the papilloma
[1]
  M1 (iNOS) / M2 (arginase I) differentiation of macrophages: can drive macrophages into either M1 or M2 differentiation

## interferon alpha
Cervical dysplasia
  rate of recurrence of cervical dysplasia: neither approach impacts the rate of recurrence
